{"source": "patent US20250339421A1", "about": "“METHODS FOR TREATING BILE DUCT CANCERS WITH TIVOZANIB” (The U.S.A., as represented by the Secretary, Department of …, priority 2021, published 2025)", "key": {"[1]": {"settings": "cited from earlier work"}, "AKT S473 phosphorylation [2]": {"system": "AKT S473 phosphorylation", "assay": "AKT S473 phosphorylation in WITT cholangiocarcinoma cells", "format": "cell-based", "settings": "WITT cell line, compared to control levels"}, "AKT S473 phosphorylation [3]": {"system": "AKT S473 phosphorylation", "assay": "AKT S473 phosphorylation in EGI-1 cholangiocarcinoma cells", "format": "cell-based", "settings": "EGI-1 cell line, compared to control levels"}, "AKT S473 phosphorylation [4]": {"system": "AKT S473 phosphorylation", "assay": "AKT S473 phosphorylation in SNU-1079 cholangiocarcinoma cells", "format": "cell-based", "settings": "SNU-1079 cell line, compared to control levels"}, "WITT [5]": {"system": "WITT", "assay": "proliferation of WITT cholangiocarcinoma cells", "format": "cell-based", "settings": "WITT cell line; IC50 only in FIG. 3C-3E"}, "EGI-1 [6]": {"system": "EGI-1", "assay": "proliferation of EGI-1 cholangiocarcinoma cells", "format": "cell-based", "settings": "EGI-1 cell line; IC50 only in FIG. 3C-3E"}, "SNU-1079": {"system": "SNU-1079", "assay": "proliferation of SNU-1079 cholangiocarcinoma cells", "format": "cell-based", "settings": "SNU-1079 cell line; IC50 only in FIG. 3C-3E"}, "WITT [7]": {"system": "WITT", "assay": "tumor organoid assay, WITT", "format": "cell-based", "settings": "tivozanib at 200 nM vs control", "method": "(§1) Images of control are on the top row, whereas the effects of tivozanib at 200 nM are shown in the bottom row where the tumor organoids are smaller and fewer than in the control."}, "EGI-1 [8]": {"system": "EGI-1", "assay": "tumor organoid assay, EGI-1", "format": "cell-based", "settings": "tivozanib at 200 nM vs control", "method": "as §1"}, "SNU-1070": {"system": "SNU-1070", "assay": "tumor organoid assay, SNU-1070 (SNU-1079)", "format": "cell-based", "settings": "SNU-1070 as printed; tivozanib at 200 nM vs control", "method": "as §1"}, "EGI-1 cell line": {"system": "EGI-1 cell line", "assay": "subcutaneous xenograft model (EGI-1 cell line)", "format": "in vivo, athymic nude mice", "method": "FIG. 3G is a photograph of tumors obtained in a subcutaneous xenograft model using athymic nude mice (top row=vehicle treated; bottom row=20 mg/kg/day Tivozanib treatment for 28 days).\nFIG. 3L provides a photograph of tumors obtained in an EGI-1 CCA cell line subcutaneous xenograft model following 28 days of treatment with vehicle or bevacizumab (top row=vehicle treated; bottom row=bevacizumab). Bevacizumab was provided at the standard murine dose. […] However, the reduction was not as dramatic as that seen with tivozanib alone (see FIG. 3H). As bevacizumab is an anti-VEGF antibody, the reduction seen in tumor volume provided by tivozanib cannot be attributed to its VEGF inhibitory properties alone; otherwise, a similar reduction would have been expected with bevacizumab.\nTo confirm that the tumoricidal effects of tivozanib were not due to its activity as a VEGF inhibitor, but could be attributed to action on SLK, the antitumor effects of bevacizumab, an anti-VEGF antibody, on EGI-1 cholangiocarcinoma xenografts were evaluated. […] If the decrease in tumor size with tivozanib was due solely to its activity as a VEGF inhibitor, bevacizumab should have produced similar results."}, "[9]": {"system": "liver metastasis from a patient with XPO7-expressing cholangiocarcinoma", "assay": "ex vivo tumor SMART platform, H&E and Ki67 staining", "format": "cell-based, human", "method": "Finally, tivozanib was evaluated in the ex vivo tumor SMART platform described in International Patent Application No. WO2021/183527 which is incorporated by reference herein for all purposes. A liver metastasis from a patient with XPO7-expressing cholangiocarcinoma was evaluated using H&E staining and Ki67 staining to contrast treatment with control versus tivozanib."}, "VEGFR-3": {"target": "VEGFR-3 (Homo sapiens, UniProt P35916)", "sequence (P35916 25-1363)": "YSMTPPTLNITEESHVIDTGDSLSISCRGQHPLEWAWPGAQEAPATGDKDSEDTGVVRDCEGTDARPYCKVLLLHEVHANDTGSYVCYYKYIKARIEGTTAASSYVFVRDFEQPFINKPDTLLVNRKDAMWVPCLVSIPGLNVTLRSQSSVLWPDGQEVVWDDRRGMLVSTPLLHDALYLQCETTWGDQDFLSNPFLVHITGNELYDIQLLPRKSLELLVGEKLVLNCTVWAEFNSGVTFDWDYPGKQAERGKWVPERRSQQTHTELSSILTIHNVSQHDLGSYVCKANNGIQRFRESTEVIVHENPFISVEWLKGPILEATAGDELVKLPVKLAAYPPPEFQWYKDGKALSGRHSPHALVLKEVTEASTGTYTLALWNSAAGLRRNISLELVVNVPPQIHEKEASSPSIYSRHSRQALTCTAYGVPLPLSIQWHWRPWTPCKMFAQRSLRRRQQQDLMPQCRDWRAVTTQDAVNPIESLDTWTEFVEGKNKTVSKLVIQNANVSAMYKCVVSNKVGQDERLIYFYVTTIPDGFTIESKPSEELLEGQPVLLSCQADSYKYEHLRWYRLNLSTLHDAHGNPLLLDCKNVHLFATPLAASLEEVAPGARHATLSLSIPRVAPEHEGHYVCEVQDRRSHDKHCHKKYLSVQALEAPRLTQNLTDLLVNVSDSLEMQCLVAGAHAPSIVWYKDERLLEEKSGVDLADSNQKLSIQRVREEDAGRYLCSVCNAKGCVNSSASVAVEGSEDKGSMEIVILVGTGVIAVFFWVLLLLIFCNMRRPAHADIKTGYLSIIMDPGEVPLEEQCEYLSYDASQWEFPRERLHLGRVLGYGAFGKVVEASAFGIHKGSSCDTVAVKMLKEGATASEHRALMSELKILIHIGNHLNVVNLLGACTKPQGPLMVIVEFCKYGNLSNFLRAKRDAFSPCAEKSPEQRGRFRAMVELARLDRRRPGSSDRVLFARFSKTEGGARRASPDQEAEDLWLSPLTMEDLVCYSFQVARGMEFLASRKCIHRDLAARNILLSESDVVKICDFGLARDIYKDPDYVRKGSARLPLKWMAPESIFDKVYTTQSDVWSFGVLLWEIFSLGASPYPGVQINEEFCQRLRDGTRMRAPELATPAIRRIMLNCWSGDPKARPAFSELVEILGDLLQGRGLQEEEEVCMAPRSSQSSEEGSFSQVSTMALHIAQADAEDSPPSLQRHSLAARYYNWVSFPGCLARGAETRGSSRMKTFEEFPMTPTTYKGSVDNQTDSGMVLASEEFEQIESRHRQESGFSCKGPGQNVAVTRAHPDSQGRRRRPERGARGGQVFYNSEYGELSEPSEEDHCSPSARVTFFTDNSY", "settings": "at clinically relevant concentrations; cited from earlier work"}, "c-kit": {"target": "c-kit (Homo sapiens, UniProt P10721)", "sequence (P10721 26-976)": "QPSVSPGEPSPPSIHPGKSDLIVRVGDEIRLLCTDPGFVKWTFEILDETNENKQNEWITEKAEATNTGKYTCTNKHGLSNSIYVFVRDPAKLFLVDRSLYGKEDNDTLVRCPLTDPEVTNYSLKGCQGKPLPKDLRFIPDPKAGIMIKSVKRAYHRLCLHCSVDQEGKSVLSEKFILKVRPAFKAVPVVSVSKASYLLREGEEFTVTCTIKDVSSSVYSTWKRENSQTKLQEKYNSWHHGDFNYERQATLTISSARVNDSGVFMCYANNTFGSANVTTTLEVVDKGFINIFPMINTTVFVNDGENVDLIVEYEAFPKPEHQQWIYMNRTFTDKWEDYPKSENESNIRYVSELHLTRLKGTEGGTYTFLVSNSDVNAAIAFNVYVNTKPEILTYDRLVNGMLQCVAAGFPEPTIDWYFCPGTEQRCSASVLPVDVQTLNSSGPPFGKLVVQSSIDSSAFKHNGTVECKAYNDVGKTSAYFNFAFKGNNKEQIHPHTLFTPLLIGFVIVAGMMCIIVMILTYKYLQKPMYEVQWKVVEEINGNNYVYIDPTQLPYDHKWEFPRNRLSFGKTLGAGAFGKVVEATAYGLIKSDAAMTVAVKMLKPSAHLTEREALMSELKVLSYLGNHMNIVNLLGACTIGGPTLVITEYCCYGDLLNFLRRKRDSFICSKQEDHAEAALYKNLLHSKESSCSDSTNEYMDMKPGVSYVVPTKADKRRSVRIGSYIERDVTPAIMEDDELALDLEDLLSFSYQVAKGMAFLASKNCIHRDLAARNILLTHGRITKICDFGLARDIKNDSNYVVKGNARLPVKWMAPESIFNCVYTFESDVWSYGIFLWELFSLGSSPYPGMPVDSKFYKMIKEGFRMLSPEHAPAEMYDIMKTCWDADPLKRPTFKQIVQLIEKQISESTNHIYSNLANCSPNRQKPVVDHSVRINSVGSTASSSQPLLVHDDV", "settings": "at clinically relevant concentrations; cited from earlier work"}, "PDGFR β": {"target": "PDGFR β (Homo sapiens, UniProt P09619)", "sequence (P09619 33-1106)": "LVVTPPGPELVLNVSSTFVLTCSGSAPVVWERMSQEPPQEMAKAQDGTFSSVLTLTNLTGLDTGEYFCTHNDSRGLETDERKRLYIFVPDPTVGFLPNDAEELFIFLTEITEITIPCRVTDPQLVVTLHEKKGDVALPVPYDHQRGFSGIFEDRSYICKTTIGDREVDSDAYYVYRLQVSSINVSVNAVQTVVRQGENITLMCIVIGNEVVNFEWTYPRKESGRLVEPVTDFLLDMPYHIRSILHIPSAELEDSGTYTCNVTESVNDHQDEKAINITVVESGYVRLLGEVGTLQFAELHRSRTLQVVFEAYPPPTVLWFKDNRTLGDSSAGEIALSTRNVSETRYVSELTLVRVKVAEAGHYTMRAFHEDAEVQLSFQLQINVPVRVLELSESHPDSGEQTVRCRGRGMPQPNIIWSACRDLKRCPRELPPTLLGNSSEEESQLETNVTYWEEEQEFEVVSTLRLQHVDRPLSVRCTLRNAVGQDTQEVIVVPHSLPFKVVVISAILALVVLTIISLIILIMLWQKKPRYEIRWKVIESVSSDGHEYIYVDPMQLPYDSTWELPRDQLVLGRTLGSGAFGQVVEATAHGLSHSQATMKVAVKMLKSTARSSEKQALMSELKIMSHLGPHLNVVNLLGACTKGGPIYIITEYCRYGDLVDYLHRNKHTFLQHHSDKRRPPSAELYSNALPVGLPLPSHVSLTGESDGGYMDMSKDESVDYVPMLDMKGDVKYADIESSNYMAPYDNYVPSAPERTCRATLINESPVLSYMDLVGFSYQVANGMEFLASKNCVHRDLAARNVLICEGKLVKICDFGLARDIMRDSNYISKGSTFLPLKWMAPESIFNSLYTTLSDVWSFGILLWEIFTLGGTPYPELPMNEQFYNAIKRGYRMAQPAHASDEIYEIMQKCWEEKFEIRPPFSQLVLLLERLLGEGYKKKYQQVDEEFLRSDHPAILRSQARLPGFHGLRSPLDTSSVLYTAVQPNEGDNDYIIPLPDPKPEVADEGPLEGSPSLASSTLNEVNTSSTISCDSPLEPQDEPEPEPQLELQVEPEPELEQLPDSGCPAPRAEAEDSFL", "settings": "at clinically relevant concentrations; cited from earlier work"}, "[10]": {"system": "various tumor cell types including human renal cell carcinoma", "settings": "tumor xenograft models in mice and rats; cited from earlier work"}, "[11]": {"settings": "patients on Tivozanib; cited from earlier work"}, "SLK": {"target": "SLK (Homo sapiens, UniProt Q9H2G2)", "sequence (Q9H2G2 whole entry)": "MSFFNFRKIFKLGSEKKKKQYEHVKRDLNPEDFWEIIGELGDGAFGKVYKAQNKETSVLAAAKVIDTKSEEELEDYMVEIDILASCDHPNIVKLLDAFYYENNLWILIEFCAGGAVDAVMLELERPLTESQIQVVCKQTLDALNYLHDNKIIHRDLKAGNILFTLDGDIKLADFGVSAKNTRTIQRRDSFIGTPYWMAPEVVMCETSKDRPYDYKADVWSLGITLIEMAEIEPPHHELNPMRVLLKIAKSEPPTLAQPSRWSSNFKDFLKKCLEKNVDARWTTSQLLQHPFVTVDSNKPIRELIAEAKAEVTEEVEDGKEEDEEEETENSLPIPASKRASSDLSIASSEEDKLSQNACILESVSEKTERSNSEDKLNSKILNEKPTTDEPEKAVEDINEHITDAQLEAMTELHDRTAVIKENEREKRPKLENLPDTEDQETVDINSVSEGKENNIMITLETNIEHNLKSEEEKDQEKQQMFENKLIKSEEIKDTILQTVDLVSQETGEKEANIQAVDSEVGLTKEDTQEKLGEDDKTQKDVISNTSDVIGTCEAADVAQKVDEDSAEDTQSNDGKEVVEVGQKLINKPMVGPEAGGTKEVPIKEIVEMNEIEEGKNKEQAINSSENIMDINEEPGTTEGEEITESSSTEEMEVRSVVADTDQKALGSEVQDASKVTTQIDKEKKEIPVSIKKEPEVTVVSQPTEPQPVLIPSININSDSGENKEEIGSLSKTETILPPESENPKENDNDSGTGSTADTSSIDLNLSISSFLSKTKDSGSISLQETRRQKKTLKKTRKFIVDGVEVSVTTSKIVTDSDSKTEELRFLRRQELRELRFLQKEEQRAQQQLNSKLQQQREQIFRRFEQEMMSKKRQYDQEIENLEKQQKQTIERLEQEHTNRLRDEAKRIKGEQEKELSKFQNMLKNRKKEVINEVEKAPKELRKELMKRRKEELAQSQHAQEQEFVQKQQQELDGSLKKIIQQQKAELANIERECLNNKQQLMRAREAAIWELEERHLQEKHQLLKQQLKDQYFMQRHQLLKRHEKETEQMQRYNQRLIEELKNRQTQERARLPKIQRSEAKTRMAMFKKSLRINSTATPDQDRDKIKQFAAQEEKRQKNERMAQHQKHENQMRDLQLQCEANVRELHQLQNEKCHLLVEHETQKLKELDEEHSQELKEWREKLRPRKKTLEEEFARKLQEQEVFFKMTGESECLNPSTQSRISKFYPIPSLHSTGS", "assay": "kinome inhibition screen", "settings": "FIG. 3A"}}, "note": "Counter-ions that a name gives are not always drawn.", "data": [{"molecule": "COc1cc2nccc(Oc3ccc(NC(=O)Nc4cc(C)on4)c(Cl)c3)c2cc1OC", "note": "[Tivozanib hydrochloride, 1-{2-chloro-4-[(6,7-dimethoxyquinolin-4-yl)oxy]phenyl}-3-(5-methylisoxazol-3-yl) urea hydrochloride hydrate]", "values": [{"measurement": "solubility in water", "setting": "[1]", "value": "practically insoluble in water"}]}, {"molecule": "COc1cc2nccc(Oc3ccc(NC(=O)Nc4cc(C)on4)c(Cl)c3)c2cc1OC", "note": "[tivozanib, N-{2-chloro-4-[(6,7-dimethoxy-4-quinolyl)oxy]-phenyl}-N′-(5-methyl-3-isoxazolyl) urea]", "values": [{"measurement": "AKT S473 phosphorylation", "setting": "AKT S473 phosphorylation [2]", "value": "inhibited AKT S473 phosphorylation"}, {"measurement": "AKT S473 phosphorylation", "setting": "AKT S473 phosphorylation [3]", "value": "inhibited AKT S473 phosphorylation"}, {"measurement": "AKT S473 phosphorylation", "setting": "AKT S473 phosphorylation [4]", "value": "inhibited AKT S473 phosphorylation"}, {"measurement": "proliferation", "setting": "WITT [5]", "value": "inhibited proliferation"}, {"measurement": "proliferation", "setting": "EGI-1 [6]", "value": "inhibited proliferation"}, {"measurement": "proliferation", "setting": "SNU-1079", "value": "inhibited proliferation"}, {"measurement": "tumor organoid formation", "setting": "WITT [7]", "value": "abrogated tumor formation"}, {"measurement": "tumor organoid formation", "setting": "EGI-1 [8]", "value": "abrogated tumor formation"}, {"measurement": "tumor organoid formation", "setting": "SNU-1070", "value": "abrogated tumor formation"}, {"measurement": "tumor growth in vivo", "setting": "EGI-1 cell line; EGI-1 subcutaneous xenograft", "value": "inhibited tumor growth"}, {"measurement": "final tumor volume vs control vehicle", "setting": "EGI-1 cell line; tivozanib 20 mg/kg/day for 28 days, p value of <0.001", "value": "statistically significantly smaller in volume"}, {"measurement": "change in tumor volume over the course of treatment", "setting": "EGI-1 cell line; waterfall plot FIG. 3I, compared to control", "value": "substantial change in tumor volume"}, {"measurement": "cell degeneration", "setting": "[9]; 0.2 μg/mL tivozanib", "value": "statistically significant increased cell degeneration"}, {"measurement": "viable cells compared to control", "setting": "[9]; 0.2 μg/mL tivozanib", "value": "fewer viable cells"}, {"measurement": "cell degeneration", "setting": "[9]; 1 μg/mL tivozanib", "value": "statistically significant increased cell degeneration"}, {"measurement": "viable cells compared to control", "setting": "[9]; 1 μg/mL tivozanib", "value": "fewer viable cells"}, {"measurement": "Ki67 staining (dark stained nuclei)", "setting": "[9]; day 4, vs control tissue (0 μg/mL tivozanib)", "value": "reduction in dark stained nuclei"}, {"measurement": "cell death", "setting": "[9]; higher dose level (1 μg/mL tivozanib)", "value": "statistically significant levels of cell death"}, {"measurement": "phosphorylation of VEGFR-3", "setting": "VEGFR-3", "value": "inhibits phosphorylation"}, {"measurement": "inhibition of c-kit", "setting": "c-kit", "value": "inhibits"}, {"measurement": "inhibition of PDGFR β", "setting": "PDGFR β", "value": "inhibits"}, {"measurement": "angiogenesis", "setting": "[10]", "value": "inhibited"}, {"measurement": "tumor growth", "setting": "[10]", "value": "inhibited"}, {"measurement": "incidence of hypertension", "setting": "[11]", "value": "high incidence"}, {"measurement": "inhibition of SLK", "setting": "SLK", "value": "potent inhibitor of SLK"}]}, {"molecule": "bevacizumab: an anti-VEGF antibody", "values": [{"measurement": "average tumor volume vs control group", "setting": "EGI-1 cell line; bevacizumab, standard murine dose, 28 days of treatment", "value": "statistically significantly smaller"}]}]}
